{
  "source": "patent US4250259A",
  "about": "“Microbiological production of ketones from C3 -C6 secondary alcohols” (priority 1979, dated 1981)",
  "key": {"[1]": {"tested_on": "Methylosinus sporium 5 (NRRL B-11,197)", "assay": "sec-alcohols to ketones by resting cell suspensions", "assay_type": "cell-based"}, "[2]": {"tested_on": "secondary alcohol dehydrogenase, crude extracts", "conditions": "2-butanol as a substrate; extracts of methanol-grown yeast", "experimental": "Cell suspensions (2 g. wet weight) of packed cells in 10 ml. of 50 mM sodium phosphate buffer, pH 7.0 at 4° C. were disrupted by sonication with a Megason ultrasonic disintegration. The sonicated cell suspensions were centrifuged for 15 minutes at 30,000×g. The supernantant liquid was termed the crude extracts.\nSecondary alcohol dehydrogenase activity was measured spectrophotometrically at 340 nm with a NAD^+ as an electron acceptor. The reaction mixture, in a total 3.0 ml., contained 50 mM phosphate buffer, pH 8.0, 5 μmoles NAD^+, crude extracts, and substrate. The reactions were started by addition of 100 μl of 0.1 M substrate and the rate of NAD^+ reduction was measured. Protein concentration was determined by the method of Lowry et al.\nOxidation of secondary alcohols were also estimated spectrophotometrically by measuring the reduction of NAD^+. […] NRRL Y-11,328 Torulopsis sp."}, "[3]": {"tested_on": "Hansenula anomala NRRL Y-336", "conditions": "cell suspensions", "experimental": "(§1) The cells were harvested during exponential growth by centrifugation at 12,000×g. for 15 min. The cell pellet was washed twice with 50 mM phosphate buffer, pH 7. The final pellet was resuspended in the same buffer. Cell suspensions of yeasts grown on ethanol, methylamine, and methylformate were prepared as described above using 0.4 v/v ethanol, 10 mM methylamine and 10 mM methylformate as the sole source of carbon and energy.\n(§2) A 1 ml. aliquot of each washed cell suspension of yeasts grown on various carbon sources was put into 10 ml. vials at 40° C. […] The vials were then incubated at 30° C. on a rotary water bath shaker at 200 rpm. The product of oxidation of secondary alcohols was detected by gas chromatography retention time comparison and co-chromatography with authentic standard."}, "[4]": {"tested_on": "Pichia pastoris NRRL Y-55", "conditions": "cell suspensions", "experimental": "as §1, §2"}, "[5]": {"tested_on": "Candida boidinii NRRL Y-2332", "conditions": "cell suspensions", "experimental": "as §1, §2"}, "[6]": {"tested_on": "secondary alcohol dehydrogenase (SADH), cell-free soluble extract", "conditions": "Growth Substrate CH3 OH", "experimental": "(§3) To prepare the cell-free secondary alcohol dehydrogenase (SADH) system, the washed cells were disrupted with a Wave Energy Ultrasonic Oscillator, Model W201 (Wave Energy System, Inc., Newtown, Pa.) and centrifuged at 20,000×g. for 30 minutes. […] The enzyme activity was measured with a fluorescence spectrophotometer (Perkin Elmer, Model MPF 44A) by following the formation of reduced NAD (EX 340 nm, Em 460 nm). The formation of reduced NAD was also followed with an absorption spectrophotometer at 340 nm. The assay system (3 ml.) contained: potassium phosphate buffer pH 7.0; 150 μmol.; NAD 1 μmol.; a given amount of enzyme preparation; and secondary alcohol 10 μmol. The reaction was started by the addition of substrate. One unit of enzyme activity represents the reduction of one μmole NAD per minute. Protein concentrations were determined by the Lowry method (J. Biol. Chem., 193: 255-275 (1951)).\n(§4) The experimental procedure for the tests reported in Table VIII were as follows: 1 mg protein of crude extract was added into a 0.5 ml. 0.05 M phosphate buffer (pH 7.0) in a 10-ml. vial. […] The reaction mixture was incubated at 30° C. on a water bath. A 3 μl sample was removed with a syringe at 15 min. of incubation and was assayed with g.l.c. Catalytic activity was also assayed by fluorescence spectrophotometry."}, "[7]": {"tested_on": "secondary alcohol dehydrogenase (SADH), cell-free soluble extract", "conditions": "Growth Substrate CH4", "experimental": "as §3, §4"}, "[8]": {"tested_on": "secondary alcohol dehydrogenase (SADH), cell-free soluble extract", "conditions": "Growth Substrate CH3 OH", "experimental": "as §3, §4", "remark": "listed apart in the source"}, "[9]": {"tested_on": "secondary alcohol dehydrogenase (SADH), cell-free soluble extract", "conditions": "Growth Substrate CH4", "experimental": "as §3, §4", "remark": "listed apart in the source"}, "[10]": {"tested_on": "secondary alcohol dehydrogenase (SADH), cell-free soluble extract", "conditions": "Growth Substrate CH4", "experimental": "as §3, §4", "remark": "listed apart in the source"}},
  "note": "Read-outs that look alike come from different tables or passages of the source.",
  "data": [
    {"molecule": "CC(C)O", "note": "[2-Propanol, 2-propanol]", "values": [
      {"measurement": "Conversion Rates, sec-alcohol to corresponding ketone", "setting": "[1]; cells grown on methane", "result": 0.30, "unit": "μmoles/hr/mg protein"},
      {"measurement": "Conversion Rates, sec-alcohol to corresponding ketone", "setting": "[1]; cells grown on methanol", "result": 0.45, "unit": "μn moles/hr/mg protein"}
    ]},
    {"molecule": "CCC(C)O", "note": "(stereo not shown) [2-Butanol, 2-butanol]", "values": [
      {"measurement": "specific activities", "setting": "[2]", "result": "85 nmoles NAD^+ reduced per min. per mg. protein"},
      {"measurement": "Conversion Rates, sec-alcohol to corresponding ketone", "setting": "[1]; cells grown on methane", "result": 3.0, "unit": "μmoles/hr/mg protein"},
      {"measurement": "Conversion Rates, sec-alcohol to corresponding ketone", "setting": "[1]; cells grown on methanol", "result": 3.5, "unit": "μn moles/hr/mg protein"},
      {"measurement": "conversion rates, 2-butanol to 2-butanone", "setting": "[3]", "result": 5.5, "unit": "μ moles/hr/mg. protein"},
      {"measurement": "conversion rates, 2-butanol to 2-butanone", "setting": "[4]", "result": 5.8, "unit": "μ moles/hr/mg. protein"},
      {"measurement": "conversion rates, 2-butanol to 2-butanone", "setting": "[5]", "result": 6.0, "unit": "μ moles/hr/mg. protein"},
      {"measurement": "Conversion Rate, 2-butanol to 2-butanone", "setting": "[6]", "result": 15.0, "unit": "nmoles/min/mg protein"},
      {"measurement": "Conversion Rate, 2-butanol to 2-butanone", "setting": "[7]", "result": 0.5, "unit": "nmoles/min/mg protein"},
      {"measurement": "Conversion Rate, 2-butanol to 2-butanone", "setting": "[8]", "result": 2.0, "unit": "nmoles/min/mg protein"},
      {"measurement": "Conversion Rate, 2-butanol to 2-butanone", "setting": "[9]", "result": 0.8, "unit": "nmoles/min/mg protein"},
      {"measurement": "Conversion Rate, 2-butanol to 2-butanone", "setting": "[10]", "result": 1.2, "unit": "nmoles/min/mg protein"}
    ]}
  ]
}
